Reference: US20260215418A1, “HYDROCARBON ALCOHOLS AND THEIR DERIVATIVES AS SYNERGISTS IN PESTICIDE ACTIVITY” (priority 2022, published 2026)
“Also recorded” adds a separate entry of the source.

Columns and labels:
Blatta lateralis = experiment: Contact test on non-porous tile, Blatta lateralis; format: in vivo; settings: Blatta lateralis; synergist applied with Imidacloprid
Method: 1 ml of Composition 24 was distributed on the tile. […] 1 ml of Composition 20c was distributed on a tile. […] 1 ml of Composition 20d was distributed on a tile.
1 ml of Composition 24 was distributed on the tile. […] 1 ml of Composition 28 was distributed on a tile. […] Each experiment (A-B) was conducted in duplicate.
1 ml of Composition 24 was distributed on the tile. […] 1 ml of Composition 21 was distributed on a tile.
1 ml of Composition 4b was distributed on the tile. […] 1 ml of Composition 31c was distributed on a tile. […] 1 ml of Composition 31d was distributed on a tile. […] 1 ml of Composition 31d was distributed on a tile.
1 ml of Composition 24 was distributed on the tile. […] 1 ml of Composition 35 was distributed on a tile. […] 1 ml of Composition 40b was distributed on a tile. […] 1 ml of Composition 42 was distributed on a tile.

Musca domestica L. = experiment: Contact test on non-porous tile, Musca domestica; format: in vivo; settings: for synergizing effect on Azamethiphos / synergizing effect on Cypermethrin / synergizing effect on Spinosad: Musca domestica L.; for synergizing effect on Azamethiphos: synergist applied with Azamethiphos; for synergizing effect on Cypermethrin: synergist applied with Cypermethrin; for synergizing effect on Spinosad: synergist applied with Spinosad; for mortality at 680 µg/mL: 0.68 mg/ml
[1] = Musca domestica, single substance alone, 48 h, read-out: Mortality %/time (h)

Compound | synergizing effect on Imidacloprid (Blatta lateralis) | synergizing effect on Azamethiphos (Musca domestica L.) | synergizing effect on Cypermethrin (Musca domestica L.) | synergizing effect on Spinosad (Musca domestica L.) | mortality at 150 µg/mL (Musca domestica L.; Musca domestica, single substance alone, 0.15 mg/ml, 48 h, read-out: Mortality %/time (h)) [%] | mortality at 510 µg/mL (Musca domestica L.; Musca domestica, single substance alone, 0.51 mg/ml, 48 h, read-out: Mortality %/time (h)) [%] | mortality at 680 µg/mL (Musca domestica L.; [1]) [%] | mortality at 1020 µg/mL (Musca domestica L.; Musca domestica, single substance alone, 1.02 mg/ml, 48 h, read-out: Mortality %/time (h)) [%] | mortality at 33000 µg/mL (Musca domestica L.; Musca domestica, single substance alone, 33.00 mg/ml, 48 h, read-out: Mortality %/time (h)) [%] | Mortality %/time (h) (Musca domestica L.; single substance alone, 0.15 mg/ml, 48 h) | Mortality %/time (h) (Musca domestica L.; single substance alone, 0.51 mg/ml, 48 h) | Mortality %/time (h) (Musca domestica L.; single substance alone, 0.88 mg/ml, 48 h) | Mortality %/time (h) (Musca domestica L.; single substance alone, 28.53 mg/ml, 48 h)
CCCCCCCC/C=C\CCCCCCCCOC(C)=O [Oleyl acetate] | excellent synergizing effect | high synergizing effect | high synergizing effect | fine synergizing effect | 0 | 0 | 60 | 0 | 18 | – | – | – | –
CCCCCCCCOC(=O)OCCCCCCCC [dioctyl carbonate] | good synergizing effect | excellent synergizing effect | high synergizing effect | fine synergizing effect | – | – | 33 | – | – | – | – | – | –
Oleic alcohol [Oleic alcohol 95%] | same synergizing effect of PBO | high synergizing effect | synergistic effect, comparable to the activity shown by PBO; also recorded: good synergizing effect | – | – | – | – | – | – | 1/48 ^ % | 5/48 ^ % | 8/48 ^ % | 18/48 ^ %
